From ChEMBL document CHEMBL5465560, “Selectivity Literature for EUbOPEN Chemogenomic Library” (2024) come the findings set out here.

The target in assay [1] is Phosphatidylinositol 4,5-bisphosphate 3-kinase catalytic subunit alpha isoform (Homo sapiens) (UniProt P42336). Briefly: Selectivity interaction (Kinase panel (Eurofins)) EUB0001564a PIK3CA. Particulars: at 1 µM.
Assay [2] concerns the target T1, Phosphatidylinositol 3-kinase C2 domain-containing subunit gamma (Homo sapiens) (UniProt O75747).
T1 sequence (whole entry): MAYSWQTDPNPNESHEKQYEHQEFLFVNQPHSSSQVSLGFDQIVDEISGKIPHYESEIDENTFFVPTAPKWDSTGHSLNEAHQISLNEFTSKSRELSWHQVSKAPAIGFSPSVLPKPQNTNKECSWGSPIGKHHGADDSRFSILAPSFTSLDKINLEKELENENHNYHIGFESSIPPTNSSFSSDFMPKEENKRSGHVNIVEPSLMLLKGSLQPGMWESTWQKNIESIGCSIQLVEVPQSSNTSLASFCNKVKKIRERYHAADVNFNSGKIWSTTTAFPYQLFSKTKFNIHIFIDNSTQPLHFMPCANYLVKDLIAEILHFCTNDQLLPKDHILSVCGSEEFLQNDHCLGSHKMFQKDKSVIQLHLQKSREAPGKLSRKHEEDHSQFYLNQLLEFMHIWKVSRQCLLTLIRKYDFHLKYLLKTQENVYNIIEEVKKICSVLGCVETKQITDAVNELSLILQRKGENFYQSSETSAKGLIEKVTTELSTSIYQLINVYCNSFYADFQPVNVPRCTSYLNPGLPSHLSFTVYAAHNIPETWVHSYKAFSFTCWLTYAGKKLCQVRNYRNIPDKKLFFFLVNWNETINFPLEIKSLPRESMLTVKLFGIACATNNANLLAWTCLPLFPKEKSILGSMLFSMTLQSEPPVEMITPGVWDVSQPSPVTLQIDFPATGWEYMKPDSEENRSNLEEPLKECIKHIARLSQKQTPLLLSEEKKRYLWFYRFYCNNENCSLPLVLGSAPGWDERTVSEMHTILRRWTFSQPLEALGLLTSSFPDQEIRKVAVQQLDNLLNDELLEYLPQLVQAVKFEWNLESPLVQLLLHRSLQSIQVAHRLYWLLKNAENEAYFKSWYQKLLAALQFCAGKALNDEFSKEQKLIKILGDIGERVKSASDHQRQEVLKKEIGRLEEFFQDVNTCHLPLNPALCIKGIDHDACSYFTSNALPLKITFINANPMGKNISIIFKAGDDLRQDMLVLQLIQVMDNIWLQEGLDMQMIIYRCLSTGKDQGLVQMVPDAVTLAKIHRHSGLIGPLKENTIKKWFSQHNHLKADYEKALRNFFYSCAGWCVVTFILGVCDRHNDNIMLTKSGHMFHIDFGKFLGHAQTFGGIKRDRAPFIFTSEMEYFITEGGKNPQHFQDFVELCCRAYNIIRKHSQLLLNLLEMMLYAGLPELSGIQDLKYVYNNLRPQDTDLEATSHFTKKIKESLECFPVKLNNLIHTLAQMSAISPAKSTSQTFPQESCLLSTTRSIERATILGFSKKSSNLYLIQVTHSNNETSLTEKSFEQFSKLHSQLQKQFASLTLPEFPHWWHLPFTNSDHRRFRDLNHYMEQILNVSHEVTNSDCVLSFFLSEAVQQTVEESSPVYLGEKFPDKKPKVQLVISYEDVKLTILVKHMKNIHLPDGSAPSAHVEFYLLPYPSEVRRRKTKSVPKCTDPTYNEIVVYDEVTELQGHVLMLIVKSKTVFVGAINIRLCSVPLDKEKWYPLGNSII
The assay is described as follows: Selectivity interaction (Kinase panel (Eurofins)) EUB0001564a PIK3C2G. Particulars: at 1 µM.

Assay [3] has as its target RAF proto-oncogene serine/threonine-protein kinase (Homo sapiens) (UniProt P04049). The assay is described as follows: Selectivity interaction (Kinase panel (Eurofins)) EUB0001564a RAF1. As to conditions: at 1 µM.
Assay [4] deals with High affinity nerve growth factor receptor (Homo sapiens, UniProt P04629). As to conditions: at 10 µM.
Assay [5] concerns the target Serine/threonine-protein kinase WNK1 (Homo sapiens) (UniProt Q9H4A3). Briefly: Selectivity interaction (KinomeScan (DiscoverX)) EUB0001049a WNK1. As to conditions: at 1 µM.
Assay [6] concerns the target T2, Phosphatidylinositol 4,5-bisphosphate 3-kinase catalytic subunit delta isoform (Homo sapiens) (UniProt O00329).
T2 sequence (whole entry): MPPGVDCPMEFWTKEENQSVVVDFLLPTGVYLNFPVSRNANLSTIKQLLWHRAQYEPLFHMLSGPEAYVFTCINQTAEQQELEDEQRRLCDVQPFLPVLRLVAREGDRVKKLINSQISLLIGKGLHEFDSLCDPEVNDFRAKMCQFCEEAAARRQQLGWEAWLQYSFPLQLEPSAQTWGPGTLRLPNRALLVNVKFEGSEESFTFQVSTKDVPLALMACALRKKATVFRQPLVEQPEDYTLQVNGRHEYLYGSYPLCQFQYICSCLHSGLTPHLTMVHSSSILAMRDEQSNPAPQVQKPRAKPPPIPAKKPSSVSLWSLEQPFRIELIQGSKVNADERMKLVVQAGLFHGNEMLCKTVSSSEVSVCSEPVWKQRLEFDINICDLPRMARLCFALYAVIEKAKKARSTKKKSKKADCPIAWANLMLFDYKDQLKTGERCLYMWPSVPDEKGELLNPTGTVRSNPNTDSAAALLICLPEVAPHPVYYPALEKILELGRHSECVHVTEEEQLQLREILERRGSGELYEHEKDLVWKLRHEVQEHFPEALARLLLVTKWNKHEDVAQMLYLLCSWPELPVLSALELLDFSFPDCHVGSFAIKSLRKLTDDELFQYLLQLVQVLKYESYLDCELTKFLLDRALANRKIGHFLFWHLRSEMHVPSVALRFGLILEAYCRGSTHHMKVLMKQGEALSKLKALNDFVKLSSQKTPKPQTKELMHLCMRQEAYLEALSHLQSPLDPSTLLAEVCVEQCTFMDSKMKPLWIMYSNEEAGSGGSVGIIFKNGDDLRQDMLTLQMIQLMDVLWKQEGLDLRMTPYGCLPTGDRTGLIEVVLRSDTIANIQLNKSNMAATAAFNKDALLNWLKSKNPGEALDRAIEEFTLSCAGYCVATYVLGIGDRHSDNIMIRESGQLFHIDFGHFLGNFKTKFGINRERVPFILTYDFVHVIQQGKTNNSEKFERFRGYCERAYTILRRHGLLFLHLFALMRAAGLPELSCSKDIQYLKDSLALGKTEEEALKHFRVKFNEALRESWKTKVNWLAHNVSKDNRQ
The assay is described as follows: Selectivity interaction (KinomeScan (DiscoverX)) EUB0000092b PIK3CD. As to conditions: at 10 µM.

For assay [7], the target named is Serine/threonine-protein kinase mTOR (Homo sapiens, UniProt P42345). The assay is described as follows: Selectivity interaction (KinomeScan (DiscoverX)) EUB0000618a MTOR. Particulars: at 10 µM.
Assay [8] has as its target Wee1-like protein kinase (Homo sapiens) (UniProt P30291). The assay is described as follows: Selectivity interaction (KinomeScan (DiscoverX)) EUB0000595a WEE1. Particulars: at 10 µM.

Serine/threonine-protein kinase WNK1 (Homo sapiens), sequence (Q9H4A3 whole entry, looked up, canonical isoform): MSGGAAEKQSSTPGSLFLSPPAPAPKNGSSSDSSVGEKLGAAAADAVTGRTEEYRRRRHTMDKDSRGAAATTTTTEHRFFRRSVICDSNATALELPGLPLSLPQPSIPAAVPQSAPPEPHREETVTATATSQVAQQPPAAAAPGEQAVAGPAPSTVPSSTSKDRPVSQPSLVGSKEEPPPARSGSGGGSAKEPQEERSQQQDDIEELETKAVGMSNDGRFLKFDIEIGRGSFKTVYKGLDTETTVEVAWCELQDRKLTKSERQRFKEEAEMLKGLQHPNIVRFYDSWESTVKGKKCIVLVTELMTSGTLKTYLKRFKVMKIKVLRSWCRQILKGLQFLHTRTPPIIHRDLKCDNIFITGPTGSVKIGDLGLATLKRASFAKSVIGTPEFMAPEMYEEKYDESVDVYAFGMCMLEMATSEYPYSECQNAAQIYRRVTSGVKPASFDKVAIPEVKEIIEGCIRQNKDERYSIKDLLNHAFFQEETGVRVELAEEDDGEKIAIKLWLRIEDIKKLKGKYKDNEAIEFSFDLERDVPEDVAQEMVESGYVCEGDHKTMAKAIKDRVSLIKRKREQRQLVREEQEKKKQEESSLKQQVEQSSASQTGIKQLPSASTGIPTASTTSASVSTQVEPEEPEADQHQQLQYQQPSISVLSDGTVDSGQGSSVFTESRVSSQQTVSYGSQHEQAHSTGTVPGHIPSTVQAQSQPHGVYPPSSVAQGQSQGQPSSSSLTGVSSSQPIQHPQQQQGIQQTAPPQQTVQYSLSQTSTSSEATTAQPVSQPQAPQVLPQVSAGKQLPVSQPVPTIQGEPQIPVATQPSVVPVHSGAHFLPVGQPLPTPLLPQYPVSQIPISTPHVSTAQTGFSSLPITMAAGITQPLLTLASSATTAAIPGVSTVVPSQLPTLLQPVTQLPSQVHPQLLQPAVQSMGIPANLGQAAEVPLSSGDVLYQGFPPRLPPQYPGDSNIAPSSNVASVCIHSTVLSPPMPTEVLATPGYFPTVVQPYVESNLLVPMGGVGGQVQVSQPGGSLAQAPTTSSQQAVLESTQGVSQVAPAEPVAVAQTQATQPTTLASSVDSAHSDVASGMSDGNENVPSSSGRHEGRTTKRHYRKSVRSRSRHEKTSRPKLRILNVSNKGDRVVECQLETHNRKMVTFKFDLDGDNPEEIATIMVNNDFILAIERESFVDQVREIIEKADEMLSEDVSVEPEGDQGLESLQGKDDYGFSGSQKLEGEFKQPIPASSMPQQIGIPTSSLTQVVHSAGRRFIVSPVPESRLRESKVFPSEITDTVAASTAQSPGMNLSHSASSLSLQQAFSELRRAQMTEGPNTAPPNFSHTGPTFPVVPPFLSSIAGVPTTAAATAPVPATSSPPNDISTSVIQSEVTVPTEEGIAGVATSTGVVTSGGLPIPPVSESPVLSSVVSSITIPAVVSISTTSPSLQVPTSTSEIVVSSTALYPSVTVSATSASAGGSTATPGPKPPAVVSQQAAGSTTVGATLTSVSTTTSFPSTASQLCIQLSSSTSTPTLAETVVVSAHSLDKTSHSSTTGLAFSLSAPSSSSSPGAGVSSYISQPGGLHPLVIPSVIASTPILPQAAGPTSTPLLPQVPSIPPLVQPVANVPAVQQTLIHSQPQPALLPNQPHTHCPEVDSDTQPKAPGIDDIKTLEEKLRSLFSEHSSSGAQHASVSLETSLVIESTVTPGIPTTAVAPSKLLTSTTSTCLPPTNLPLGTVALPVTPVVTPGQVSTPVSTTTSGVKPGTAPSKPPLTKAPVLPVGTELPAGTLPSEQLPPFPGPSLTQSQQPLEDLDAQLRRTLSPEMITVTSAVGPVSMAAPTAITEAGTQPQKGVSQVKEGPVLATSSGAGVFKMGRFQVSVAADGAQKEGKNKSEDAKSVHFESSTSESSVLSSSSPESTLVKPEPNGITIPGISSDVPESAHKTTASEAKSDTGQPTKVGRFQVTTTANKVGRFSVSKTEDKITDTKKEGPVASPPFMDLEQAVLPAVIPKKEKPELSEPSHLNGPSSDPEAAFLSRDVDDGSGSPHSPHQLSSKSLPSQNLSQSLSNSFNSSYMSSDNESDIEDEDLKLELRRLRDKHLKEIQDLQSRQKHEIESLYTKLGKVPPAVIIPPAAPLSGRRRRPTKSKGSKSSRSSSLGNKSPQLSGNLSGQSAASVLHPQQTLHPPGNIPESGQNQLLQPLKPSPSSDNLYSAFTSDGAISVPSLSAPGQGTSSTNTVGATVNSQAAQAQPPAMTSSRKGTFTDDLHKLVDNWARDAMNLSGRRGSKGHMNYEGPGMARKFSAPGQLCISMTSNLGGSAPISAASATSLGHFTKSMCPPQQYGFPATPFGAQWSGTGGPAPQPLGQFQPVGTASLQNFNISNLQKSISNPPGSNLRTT
High affinity nerve growth factor receptor, sequence (P04629 33-796 limits assumed): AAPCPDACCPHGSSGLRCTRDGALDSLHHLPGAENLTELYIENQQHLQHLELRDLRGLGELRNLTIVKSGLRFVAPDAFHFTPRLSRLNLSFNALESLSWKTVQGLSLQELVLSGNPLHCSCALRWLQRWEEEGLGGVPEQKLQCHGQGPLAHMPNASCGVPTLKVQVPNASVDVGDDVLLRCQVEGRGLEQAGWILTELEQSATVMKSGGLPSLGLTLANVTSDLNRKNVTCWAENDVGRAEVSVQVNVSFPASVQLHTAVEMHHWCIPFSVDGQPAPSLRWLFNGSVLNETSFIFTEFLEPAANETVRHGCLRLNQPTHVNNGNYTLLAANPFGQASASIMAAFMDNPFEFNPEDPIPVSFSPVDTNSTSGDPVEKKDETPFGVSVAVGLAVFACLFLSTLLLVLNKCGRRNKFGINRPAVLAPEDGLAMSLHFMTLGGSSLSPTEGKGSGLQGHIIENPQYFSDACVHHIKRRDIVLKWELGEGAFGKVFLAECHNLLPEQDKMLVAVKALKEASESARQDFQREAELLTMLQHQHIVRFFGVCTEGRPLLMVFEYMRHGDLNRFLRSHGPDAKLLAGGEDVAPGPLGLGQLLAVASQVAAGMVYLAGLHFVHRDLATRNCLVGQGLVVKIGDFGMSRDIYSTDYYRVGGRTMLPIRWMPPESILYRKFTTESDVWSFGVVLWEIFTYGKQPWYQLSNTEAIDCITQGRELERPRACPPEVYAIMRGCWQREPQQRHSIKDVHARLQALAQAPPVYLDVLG
Phosphatidylinositol 4,5-bisphosphate 3-kinase catalytic subunit alpha isoform (Homo sapiens), sequence (P42336 whole entry, the tested form may be a part, canonical isoform): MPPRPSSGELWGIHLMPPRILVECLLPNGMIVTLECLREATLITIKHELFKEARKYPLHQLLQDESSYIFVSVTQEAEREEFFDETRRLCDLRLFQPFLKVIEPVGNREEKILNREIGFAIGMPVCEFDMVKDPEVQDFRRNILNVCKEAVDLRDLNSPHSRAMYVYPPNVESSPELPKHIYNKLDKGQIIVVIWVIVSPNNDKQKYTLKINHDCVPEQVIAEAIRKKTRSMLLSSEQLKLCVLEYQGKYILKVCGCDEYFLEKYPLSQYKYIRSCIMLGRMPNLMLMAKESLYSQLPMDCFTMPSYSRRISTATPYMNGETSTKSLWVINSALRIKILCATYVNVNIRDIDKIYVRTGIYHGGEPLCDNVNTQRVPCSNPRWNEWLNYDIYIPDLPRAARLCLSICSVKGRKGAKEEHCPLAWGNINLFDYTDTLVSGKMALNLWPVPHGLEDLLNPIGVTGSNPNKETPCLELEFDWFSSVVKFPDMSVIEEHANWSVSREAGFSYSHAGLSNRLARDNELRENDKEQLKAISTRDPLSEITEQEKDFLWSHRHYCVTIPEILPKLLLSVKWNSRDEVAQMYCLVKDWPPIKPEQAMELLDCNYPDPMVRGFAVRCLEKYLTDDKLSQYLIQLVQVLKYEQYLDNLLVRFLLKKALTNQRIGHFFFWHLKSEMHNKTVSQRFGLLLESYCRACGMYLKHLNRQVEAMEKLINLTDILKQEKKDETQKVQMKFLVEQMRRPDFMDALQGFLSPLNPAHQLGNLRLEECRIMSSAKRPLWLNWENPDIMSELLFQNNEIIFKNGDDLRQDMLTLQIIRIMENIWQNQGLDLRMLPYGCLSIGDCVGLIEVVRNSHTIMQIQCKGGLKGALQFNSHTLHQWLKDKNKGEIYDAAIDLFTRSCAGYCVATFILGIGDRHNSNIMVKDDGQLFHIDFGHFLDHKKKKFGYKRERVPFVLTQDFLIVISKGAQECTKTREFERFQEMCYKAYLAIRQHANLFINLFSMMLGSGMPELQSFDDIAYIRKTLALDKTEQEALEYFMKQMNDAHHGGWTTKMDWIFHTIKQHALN
RAF proto-oncogene serine/threonine-protein kinase (Homo sapiens), sequence (P04049 whole entry): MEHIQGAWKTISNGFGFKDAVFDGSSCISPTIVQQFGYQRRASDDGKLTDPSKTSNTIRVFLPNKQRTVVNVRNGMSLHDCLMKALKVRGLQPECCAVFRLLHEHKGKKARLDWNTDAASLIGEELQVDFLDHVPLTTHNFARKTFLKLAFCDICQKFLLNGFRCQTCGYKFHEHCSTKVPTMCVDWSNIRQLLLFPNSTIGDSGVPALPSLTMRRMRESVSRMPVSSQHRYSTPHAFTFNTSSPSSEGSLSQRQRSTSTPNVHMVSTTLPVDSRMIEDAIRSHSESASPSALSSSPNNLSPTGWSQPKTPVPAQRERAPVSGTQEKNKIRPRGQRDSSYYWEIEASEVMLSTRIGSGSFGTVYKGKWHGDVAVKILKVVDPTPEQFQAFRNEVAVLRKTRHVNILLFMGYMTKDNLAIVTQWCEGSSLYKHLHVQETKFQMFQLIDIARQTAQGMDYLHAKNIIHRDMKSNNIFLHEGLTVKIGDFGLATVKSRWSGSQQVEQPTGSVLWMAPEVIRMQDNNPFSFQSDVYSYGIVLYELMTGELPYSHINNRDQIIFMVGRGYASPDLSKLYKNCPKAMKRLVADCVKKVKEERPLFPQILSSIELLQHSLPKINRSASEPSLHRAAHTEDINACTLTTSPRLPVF

For the molecule `CC[C@@H](Nc1c(C#N)c(-c2ccc(-c3cccc(C)c3F)cc2)nc2cnccc12)C(=O)O` [BAY-091], the % of inhibition in assay [1] turned out to be 30.9%; in assay [2] it was 25.4%; in assay [3], 36%.
Take `CCN(CC)CCCCNc1ncc2cc(-c3cc(OC)cc(OC)c3)c(NC(=O)NC(C)(C)C)nc2n1`: the % of control in assay [4] amounted to 100%.
In the case of `COc1cc(Nc2nc(C)cc(-c3cnn4nc(OC)ccc34)n2)cc(C(F)(F)F)c1`, the % of control in assay [5] was 66%.
`CCC(=O)N1CCN(c2ccc(-n3c(=O)ccc4cnc5ccc(-c6cnc7ccccc7c6)cc5c43)cc2C(F)(F)F)CC1` yielded a % of control in assay [6] of 51%.
For the molecule `O[C@H]1CC[C@H](Nc2ncc3nc(Nc4c(F)cc(F)cc4F)n([C@H]4CCOC4)c3n2)CC1`, the % of control in assay [7] amounted to 68%.
As for `COCC(=O)NC/C=C/c1ccc2ncnc(Nc3ccc(Oc4ccc(C)nc4)c(C)c3)c2c1` [CP-724714], the % of control in assay [8] was 100%.
